# Assay results published in US9930888B2, “Composition” (Conopco, Inc., priority 2013, dated 2018).
# Tested on: S. epidermidis
# Assay: bacterial respiration of S. epidermidis suspension in microplate
# Assay type: cell-based
# Conditions: lactam pre-blended with hydrotrope, added to remainder of composition, diluted to 11.5 ppm and 0.575 ppm; 20 hours
# Protocol: Test samples were diluted in sterile water to achieve a 11.5 ppm level of lactam. Dilute solution (80 μl) was added to a S. epidermidis suspension (20 μl) of bacteria at a concentration of 8 logs in a microplate. Growth media (100 μl tryptone soya broth) was added to each well of the microplate and incubated for 20 hours. Bacterial respiration was measured every 30 minutes and the results were: • A—lactam+hydrotrope only (respiration of surviving bacteria detected ˜4-5 h) • B—lactam added directly to base formulation (which contains MPG)—no pre-mixing prior to addition (respiration of surviving bacteria detected 4-5 hrs) • C—lactam pre-mixed with hydrotrope and then added to base formulation (respiration of surviving bacteria not detected—20 hrs is max detection time) • D—hydrotrope added to base formulation (respiration of surviving bacteria detected 3-4 hrs). The example below is from data obtained when pre-blending lactams with hydrotrope before adding to the remainder of the composition, and diluting to 11.5 ppm and 0.575 ppm in sterile water in order to assess efficacy against S. epidermidis suspension Dilute solution (80 μl) was added to a S. epidermidis suspension (20 μl) of bacteria at a concentration of 8 logs in a microplate. Growth media (100 μl tryptone soya broth) was added to each well of the microplate and incubated for 20 hours. Bacterial respiration was measured every 30 minutes. Data of the test samples were then compared to un-treated cell suspensions (sterile water added instead of test samples) and percent inhibition calculated.
row,SMILES,Result (inhibition of bacterial respiration versus water control)
1,C=C1NC(=O)CC1c1ccccc1F (centres unmarked) [5-methylene-4-(2′-fluorophenyl)-dihydropyrrol-2-one],79.4%
2,C=C1NC(=O)C=C1c1ccc(Br)cc1 [5-methylene-4-(4′-bromophenyl)-dihydroprrol-2-one],82.5%
